Two molecules from publication PMC9030254, “Target Hopping from Protein Kinases to PXR: Identification of Small-Molecule Protein Kinase Inhibitors as Selective Modulators of Pregnane X Receptor from TüKIC Library” (Cells, 2022) can be followed below.

Common to all, as to assay: Kinase profiling
Assay type in all cases: biochemical

One assay has as its target T1, PKCdelta (Homo sapiens, UniProt Q05655).
T1 construct: purchased ProQinase (Freiburg, Germany)
Here is the method:
(§1) The analysis was performed by ProQinase (Freiburg, Germany).

The target in the next assay is T2, RAF1 YDYD (Homo sapiens, UniProt P04049, Y340D/Y341D).
T2 construct: purchased ProQinase (Freiburg, Germany)
Here is the method:
as §1

The target in a further assay is T3, PAK1 (Homo sapiens, UniProt Q13153).
T3 construct: purchased ProQinase (Freiburg, Germany)
T3 sequence (Q13153 whole entry): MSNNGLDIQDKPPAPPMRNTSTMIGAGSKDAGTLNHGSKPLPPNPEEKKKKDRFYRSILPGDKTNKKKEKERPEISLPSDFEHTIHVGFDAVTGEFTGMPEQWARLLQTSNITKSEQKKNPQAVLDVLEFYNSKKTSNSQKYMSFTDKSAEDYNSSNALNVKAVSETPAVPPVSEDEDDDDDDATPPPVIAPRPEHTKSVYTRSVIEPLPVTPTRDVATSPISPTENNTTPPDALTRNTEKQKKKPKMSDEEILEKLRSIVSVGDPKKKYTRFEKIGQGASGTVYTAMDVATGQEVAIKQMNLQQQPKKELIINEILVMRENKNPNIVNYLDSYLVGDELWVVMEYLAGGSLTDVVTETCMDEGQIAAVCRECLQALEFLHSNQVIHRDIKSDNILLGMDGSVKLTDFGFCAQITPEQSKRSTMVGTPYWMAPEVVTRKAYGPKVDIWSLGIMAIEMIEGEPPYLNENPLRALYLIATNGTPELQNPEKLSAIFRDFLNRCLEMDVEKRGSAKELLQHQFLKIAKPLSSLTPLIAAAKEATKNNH
How it is done: as §1

A further assay addresses T4, FGFR1 (Homo sapiens, UniProt P11362).
T4 construct: purchased ProQinase (Freiburg, Germany)
How it is done: as §1

Another assay has as its target T5, CDK1/CycE1 (Homo sapiens, UniProt P06493).
T5 construct: purchased ProQinase (Freiburg, Germany)
How it is done:
as §1

A further assay addresses T6, PLK3 (Homo sapiens, UniProt Q9H4B4).
T6 construct: purchased ProQinase (Freiburg, Germany)
Here is the method:
as §1

A further assay has as its target T7, AXL (Homo sapiens, UniProt P30530).
T7 construct: purchased ProQinase (Freiburg, Germany)
T7 sequence (P30530 26-894): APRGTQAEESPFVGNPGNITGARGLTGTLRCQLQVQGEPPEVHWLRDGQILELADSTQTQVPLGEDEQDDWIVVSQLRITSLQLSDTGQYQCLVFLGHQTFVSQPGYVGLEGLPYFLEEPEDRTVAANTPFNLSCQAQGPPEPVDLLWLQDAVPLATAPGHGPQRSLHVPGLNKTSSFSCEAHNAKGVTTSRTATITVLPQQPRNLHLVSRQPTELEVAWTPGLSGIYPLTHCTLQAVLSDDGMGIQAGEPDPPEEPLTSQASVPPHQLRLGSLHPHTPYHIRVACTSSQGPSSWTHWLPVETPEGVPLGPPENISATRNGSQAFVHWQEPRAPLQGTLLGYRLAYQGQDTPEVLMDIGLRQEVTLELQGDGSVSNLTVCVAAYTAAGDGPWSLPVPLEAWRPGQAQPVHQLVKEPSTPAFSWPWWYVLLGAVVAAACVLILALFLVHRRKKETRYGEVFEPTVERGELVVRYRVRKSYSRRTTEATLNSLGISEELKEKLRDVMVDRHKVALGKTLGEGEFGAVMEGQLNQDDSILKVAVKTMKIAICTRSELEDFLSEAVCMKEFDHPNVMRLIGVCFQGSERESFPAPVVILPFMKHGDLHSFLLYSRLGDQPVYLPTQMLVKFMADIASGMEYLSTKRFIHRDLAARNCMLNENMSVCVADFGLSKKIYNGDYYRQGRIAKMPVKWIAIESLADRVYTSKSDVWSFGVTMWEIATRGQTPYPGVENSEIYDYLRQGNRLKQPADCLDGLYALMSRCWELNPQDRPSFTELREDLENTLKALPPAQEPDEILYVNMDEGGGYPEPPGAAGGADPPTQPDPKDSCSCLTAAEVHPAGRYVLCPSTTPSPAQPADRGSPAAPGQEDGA
How it is done:
as §1

A further assay has as its target T8, JAK1 (Homo sapiens, UniProt P23458).
T8 construct: purchased ProQinase (Freiburg, Germany)
Here is the method:
as §1

The next assay has as its target T9, PKCnu (Homo sapiens, UniProt O94806).
T9 construct: purchased ProQinase (Freiburg, Germany)
T9 sequence (O94806 1-890): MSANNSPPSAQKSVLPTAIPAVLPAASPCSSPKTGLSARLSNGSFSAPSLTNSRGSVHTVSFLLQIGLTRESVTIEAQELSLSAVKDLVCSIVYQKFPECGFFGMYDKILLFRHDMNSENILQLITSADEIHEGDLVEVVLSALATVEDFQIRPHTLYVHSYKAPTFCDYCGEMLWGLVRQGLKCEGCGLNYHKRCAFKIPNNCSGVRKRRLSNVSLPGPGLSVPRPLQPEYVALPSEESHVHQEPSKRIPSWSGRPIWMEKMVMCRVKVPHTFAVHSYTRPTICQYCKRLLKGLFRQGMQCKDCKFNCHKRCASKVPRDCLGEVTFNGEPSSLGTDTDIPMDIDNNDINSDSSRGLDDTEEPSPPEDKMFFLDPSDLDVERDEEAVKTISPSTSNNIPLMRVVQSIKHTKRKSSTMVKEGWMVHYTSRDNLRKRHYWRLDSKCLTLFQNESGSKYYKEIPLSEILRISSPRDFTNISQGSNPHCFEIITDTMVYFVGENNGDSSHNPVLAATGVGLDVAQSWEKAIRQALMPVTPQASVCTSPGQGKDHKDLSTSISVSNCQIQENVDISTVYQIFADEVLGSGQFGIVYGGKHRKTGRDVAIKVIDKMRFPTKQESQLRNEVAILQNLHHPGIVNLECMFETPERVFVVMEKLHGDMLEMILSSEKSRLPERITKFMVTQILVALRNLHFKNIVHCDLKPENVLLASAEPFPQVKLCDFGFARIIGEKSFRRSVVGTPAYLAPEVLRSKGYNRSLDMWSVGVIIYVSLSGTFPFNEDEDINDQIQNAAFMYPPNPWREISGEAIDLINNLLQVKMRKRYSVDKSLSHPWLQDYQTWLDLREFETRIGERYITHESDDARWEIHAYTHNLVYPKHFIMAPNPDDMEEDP
Here is the method:
as §1

Bounds are passed on as bounds.

T5 sequence (P06493 whole entry): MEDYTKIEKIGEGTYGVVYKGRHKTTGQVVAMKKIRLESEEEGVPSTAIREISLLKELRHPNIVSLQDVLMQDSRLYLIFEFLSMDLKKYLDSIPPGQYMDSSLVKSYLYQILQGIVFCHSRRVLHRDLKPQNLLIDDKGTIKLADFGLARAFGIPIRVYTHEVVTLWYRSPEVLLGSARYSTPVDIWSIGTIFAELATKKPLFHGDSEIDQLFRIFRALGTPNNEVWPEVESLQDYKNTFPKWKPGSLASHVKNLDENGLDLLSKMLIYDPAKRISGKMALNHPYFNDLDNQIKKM
T5 sequence (P24864 whole entry partner): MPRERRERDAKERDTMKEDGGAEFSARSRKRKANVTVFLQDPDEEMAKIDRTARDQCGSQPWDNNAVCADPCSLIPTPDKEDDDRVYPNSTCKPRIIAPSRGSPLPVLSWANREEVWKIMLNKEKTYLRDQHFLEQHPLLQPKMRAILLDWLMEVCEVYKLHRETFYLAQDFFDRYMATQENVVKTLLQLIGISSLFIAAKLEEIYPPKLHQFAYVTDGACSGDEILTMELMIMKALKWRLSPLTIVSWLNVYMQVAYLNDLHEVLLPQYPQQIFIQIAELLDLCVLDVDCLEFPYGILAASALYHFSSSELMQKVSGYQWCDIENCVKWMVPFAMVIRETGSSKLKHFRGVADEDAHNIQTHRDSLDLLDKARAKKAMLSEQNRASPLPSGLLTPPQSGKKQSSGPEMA
T1 sequence (Q05655 whole entry): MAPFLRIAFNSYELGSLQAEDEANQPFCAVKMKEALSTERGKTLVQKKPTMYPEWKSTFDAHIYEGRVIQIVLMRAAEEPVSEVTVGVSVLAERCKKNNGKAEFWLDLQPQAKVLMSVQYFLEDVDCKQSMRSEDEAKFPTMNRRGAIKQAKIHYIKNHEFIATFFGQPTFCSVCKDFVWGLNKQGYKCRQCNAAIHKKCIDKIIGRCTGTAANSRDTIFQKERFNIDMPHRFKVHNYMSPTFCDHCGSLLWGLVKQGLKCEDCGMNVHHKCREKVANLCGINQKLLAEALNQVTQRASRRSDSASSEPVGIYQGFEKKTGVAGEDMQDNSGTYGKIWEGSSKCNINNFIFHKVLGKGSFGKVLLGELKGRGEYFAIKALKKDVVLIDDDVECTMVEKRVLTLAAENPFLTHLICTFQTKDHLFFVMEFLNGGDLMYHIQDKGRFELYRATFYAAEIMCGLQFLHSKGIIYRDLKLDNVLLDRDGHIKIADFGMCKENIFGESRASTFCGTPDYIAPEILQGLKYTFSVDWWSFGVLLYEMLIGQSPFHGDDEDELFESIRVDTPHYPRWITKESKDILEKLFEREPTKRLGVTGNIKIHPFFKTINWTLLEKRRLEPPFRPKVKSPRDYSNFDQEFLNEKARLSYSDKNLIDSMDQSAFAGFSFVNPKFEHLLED
T8 sequence (P23458 whole entry): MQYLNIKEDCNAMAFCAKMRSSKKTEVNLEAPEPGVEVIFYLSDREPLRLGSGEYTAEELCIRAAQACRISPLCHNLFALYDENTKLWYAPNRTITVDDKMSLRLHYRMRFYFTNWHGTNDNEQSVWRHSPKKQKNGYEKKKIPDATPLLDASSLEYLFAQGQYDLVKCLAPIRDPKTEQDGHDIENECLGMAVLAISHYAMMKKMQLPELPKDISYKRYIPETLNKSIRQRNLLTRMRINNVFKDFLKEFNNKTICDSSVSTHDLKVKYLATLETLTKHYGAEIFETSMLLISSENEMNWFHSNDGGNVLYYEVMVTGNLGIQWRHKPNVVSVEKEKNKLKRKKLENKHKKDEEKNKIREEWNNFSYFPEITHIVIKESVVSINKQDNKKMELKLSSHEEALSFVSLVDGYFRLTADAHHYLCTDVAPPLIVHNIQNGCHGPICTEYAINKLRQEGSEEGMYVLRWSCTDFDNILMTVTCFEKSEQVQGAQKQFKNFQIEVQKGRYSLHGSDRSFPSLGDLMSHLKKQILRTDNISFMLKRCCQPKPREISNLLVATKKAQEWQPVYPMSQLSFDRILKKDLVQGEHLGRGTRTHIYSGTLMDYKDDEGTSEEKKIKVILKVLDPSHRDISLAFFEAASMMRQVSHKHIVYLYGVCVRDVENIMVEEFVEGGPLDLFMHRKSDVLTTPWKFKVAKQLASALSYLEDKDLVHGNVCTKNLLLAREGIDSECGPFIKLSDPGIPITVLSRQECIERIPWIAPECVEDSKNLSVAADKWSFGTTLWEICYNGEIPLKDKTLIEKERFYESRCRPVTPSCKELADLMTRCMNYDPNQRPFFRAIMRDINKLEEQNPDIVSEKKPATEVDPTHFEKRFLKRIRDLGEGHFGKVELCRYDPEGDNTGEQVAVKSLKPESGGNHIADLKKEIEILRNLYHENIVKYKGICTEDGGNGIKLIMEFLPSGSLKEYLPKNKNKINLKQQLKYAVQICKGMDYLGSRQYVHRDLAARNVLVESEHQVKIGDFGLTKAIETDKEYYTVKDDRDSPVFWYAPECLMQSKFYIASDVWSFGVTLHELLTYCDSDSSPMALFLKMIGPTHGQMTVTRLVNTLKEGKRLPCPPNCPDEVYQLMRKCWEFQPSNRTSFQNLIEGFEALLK
T4 sequence (P11362 22-822): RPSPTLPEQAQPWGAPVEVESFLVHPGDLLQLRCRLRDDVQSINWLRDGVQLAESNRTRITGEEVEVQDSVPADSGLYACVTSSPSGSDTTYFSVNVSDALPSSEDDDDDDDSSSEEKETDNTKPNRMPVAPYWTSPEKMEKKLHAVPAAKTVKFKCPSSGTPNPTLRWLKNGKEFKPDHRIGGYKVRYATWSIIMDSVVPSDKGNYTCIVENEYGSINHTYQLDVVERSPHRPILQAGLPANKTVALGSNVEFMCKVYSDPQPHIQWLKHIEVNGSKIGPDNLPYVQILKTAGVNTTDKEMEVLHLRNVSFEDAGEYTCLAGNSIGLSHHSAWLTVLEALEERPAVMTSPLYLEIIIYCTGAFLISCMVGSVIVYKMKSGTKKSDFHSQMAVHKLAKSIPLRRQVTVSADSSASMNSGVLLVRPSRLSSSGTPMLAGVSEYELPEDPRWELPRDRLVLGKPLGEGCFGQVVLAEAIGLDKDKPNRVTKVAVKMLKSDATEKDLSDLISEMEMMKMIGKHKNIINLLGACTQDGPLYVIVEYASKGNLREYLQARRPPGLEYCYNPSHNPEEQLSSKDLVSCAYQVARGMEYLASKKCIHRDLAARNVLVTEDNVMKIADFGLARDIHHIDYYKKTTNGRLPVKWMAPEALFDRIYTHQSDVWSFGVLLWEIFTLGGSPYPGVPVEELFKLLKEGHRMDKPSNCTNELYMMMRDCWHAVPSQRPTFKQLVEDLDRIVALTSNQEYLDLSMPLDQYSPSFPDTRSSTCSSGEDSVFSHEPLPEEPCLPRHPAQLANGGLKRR
T6 sequence (Q9H4B4 whole entry): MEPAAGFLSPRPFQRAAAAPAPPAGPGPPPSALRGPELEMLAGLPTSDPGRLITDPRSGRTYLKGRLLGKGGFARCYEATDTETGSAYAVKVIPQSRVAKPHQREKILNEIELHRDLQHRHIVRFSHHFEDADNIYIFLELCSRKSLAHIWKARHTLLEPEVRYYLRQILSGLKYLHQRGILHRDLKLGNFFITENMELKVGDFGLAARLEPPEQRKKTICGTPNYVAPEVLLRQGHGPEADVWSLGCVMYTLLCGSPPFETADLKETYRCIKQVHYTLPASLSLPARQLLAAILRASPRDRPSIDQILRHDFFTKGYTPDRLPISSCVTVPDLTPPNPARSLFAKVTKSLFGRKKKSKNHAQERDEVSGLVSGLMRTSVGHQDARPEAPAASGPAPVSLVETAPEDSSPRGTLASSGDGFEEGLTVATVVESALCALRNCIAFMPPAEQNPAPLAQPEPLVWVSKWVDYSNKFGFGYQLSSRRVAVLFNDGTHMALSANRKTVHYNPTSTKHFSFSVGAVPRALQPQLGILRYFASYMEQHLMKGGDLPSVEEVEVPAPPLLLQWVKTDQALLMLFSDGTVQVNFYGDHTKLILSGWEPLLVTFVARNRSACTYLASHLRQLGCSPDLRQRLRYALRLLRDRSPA

Consider `O=C(Cc1ccccc1)Nc1ccc(F)c(Nc2ccc3c(c2)CCCCC3=O)c1` [Compound 100], for which the Residual activity on PKCdelta (1.0E-05 M) is 82 % of control; at PKCdelta (1.0E-06 M), 98 % of control; at RAF1 YDYD (1.0E-05 M), 3 % of control; at RAF1 YDYD (1.0E-06 M) it was 14 % of control; on PAK1 (1.0E-05 M), 88 % of control; on PAK1 (1.0E-06 M), 87 % of control. The Residual activity is recorded as 78 % of control on FGFR1 (1.0E-05 M); 93 % of control at FGFR1 (1.0E-06 M); 100 % of control on CDK1/CycE1 (1.0E-05 M); 102 % of control on CDK1/CycE1 (1.0E-06 M); 114 % of control at PLK3 (1.0E-05 M); 115 % of control at PLK3 (1.0E-06 M). Also, the Residual activity at AXL (1.0E-05 M) is 99 % of control; at AXL (1.0E-06 M) it was 103 % of control; at JAK1 (1.0E-05 M), 85 % of control; on JAK1 (1.0E-06 M) it was 88 % of control; on PKCnu (1.0E-05 M) it was 65 % of control; at PKCnu (1.0E-06 M), 88 % of control. Further, the “inhibition of RAF1” value against RAF1 YDYD (1 µM) is reported as “inhibited considerably”. The inhibition at 10 µM on RAF1 YDYD is at least 50%.
As for `O=C(Nc1ccc(F)c(Nc2ccc3c(c2)CCCCC3=O)c1)c1cccc(F)c1` [Compound 109], the Residual activity on PKCdelta (1.0E-05 M) is recorded as 66 % of control; on PKCdelta (1.0E-06 M), 107 % of control; on RAF1 YDYD (1.0E-05 M), 12 % of control; on RAF1 YDYD (1.0E-06 M) it was 36 % of control; on PAK1 (1.0E-05 M), 80 % of control; on PAK1 (1.0E-06 M), 84 % of control. For the same molecule, the Residual activity on FGFR1 (1.0E-05 M) is 79 % of control; at FGFR1 (1.0E-06 M), 93 % of control; at CDK1/CycE1 (1.0E-05 M), 98 % of control; on CDK1/CycE1 (1.0E-06 M), 96 % of control; on PLK3 (1.0E-05 M), 104 % of control; at PLK3 (1.0E-06 M) it was 104 % of control. Moreover, the Residual activity at AXL (1.0E-05 M) is reported as 93 % of control; on AXL (1.0E-06 M), 98 % of control; at JAK1 (1.0E-05 M), 88 % of control; on JAK1 (1.0E-06 M) it was 77 % of control; at PKCnu (1.0E-05 M), 69 % of control; at PKCnu (1.0E-06 M), 88 % of control. Moreover, on RAF1 YDYD (1 µM), the inhibition at 1 µM is at least 50%. On RAF1 YDYD, this molecule came in with an inhibition at 10 µM of at least 50%.
